According to patent publication US7772425B2, “Vitamin D receptor modulators” (Eli Lilly and Company, priority 2002, dated 2010):
Several values for one entry are separate records, joined by “and”; a condition that tells them apart may be missing. Identical values can stand only once. Like-named read-outs stand apart in the source and are kept apart here. Values belong to the compound of their own block, whether it stands above or below them.

Columns and labels:
rat osteocalcin promoter = test: OCN (osteocalcin) promoter assay in RG-15 (ROS 17/2.8) cells; type: cell-based; settings: 48 hr treatment, luciferase
Description: 3. The OCN (Osteocalcin) Promoter Assay
The OCN Promoter Assay is an indicator and marker for osteoporosis. […] Preferred assay results are less than 50 nM.
(3) Materials and Method for The OCN Promoter Assay:
The activation of osteocalcin by VDR ligands was evaluated in a rat osteoblast-like cell line RG-15 (ROS 17/2.8) stably expressing rat osteocalcin promoter fused with luciferase reporter gene. […] Confluent RG-15 cells maintained in DMEM/F-12 medium (3:1) containing 5% FBS, 300 μg/ml G418 and at 37° C. under 5% CO2/95% air atmosphere were trypsinized (0.25% trypsin) and plated into white opaque 96-well cell culture plates (25000 cells/well). After 24 hr, cells (in DMEM/F-12 medium+2% FBS) were treated with various concentrations of compounds, dissolved in DMSO. The final DMSO concentration remained at 0.01% (v/v). After 48 hr treatment, the medium was removed, cells were lysed with 50 μl of lysis buffer (From Luciferase reporter assay system, Roche Diagnostics, Indianapolis, Ind.) and assayed for luciferase activity using the Luciferase Reporter Gene Assay kit from Boehringer Mannheim as per manufacturer's specifications.

female DBF mice = test: Mouse hypercalcemia assay; type: in vivo; settings: orally via gavage for 6 days; serum ionized calcium 6 hours after last dosing
From the text: 4. The Mouse Hypercalcemia Assay
(4) Materials and Method for The Mouse Hypercalcemia Assay: […]

[1] = test system: KERtr cells (Human skin keratinocyte); test: Keratinocyte proliferation assay; type: cell-based; settings: BrdU incorporation, read-out: Kera. Prolif. IC50
Description: 5. The Keratinocyte Proliferation Assay
This Assay is indicative for the treatment of psoriasis.
(5) The Keratinocyte Proliferation Assay:
KERtr cells (Human skin keratinocyte transformed with a retrovirus vector, obtained from ATCC) were plated in 96-well flat-bottomed plates (3000 cells/well) in 100 μl keratinocyte serum free medium supplemented with bovine pituitary extract in the absence of EGF (Life Technologies, Rockville, Md.) and incubated at 37° C. for two days. The cells were treated with various concentrations of VDR ligands (ten-fold serial dilution from 10,000 nM to 0.1 nM in triplicate), dissolved in 100 μl keratinocyte serum free medium supplemented with bovine pituitary extract in the absence of EGF and incubated at 37° C. for 72 hr. BrdU (5-bromo-2′-deoxyuridine) incorporation was analyzed as a measure of DNA replication (Cell proliferation ELISA kit, Roche Diagnostics, Indianapolis, Ind.) and absorbance was measured at 405 nm. Potency values (IC50) values were determined as the concentration (nM) of compound that elicited a half-maximal response.

IL-10 = test: human IL-10 induction assay in PBMCs; type: cell-based; settings: TPA/PHA treated human PBMCs, IL-10 immunoassay of supernatant
From the text: The evaluation of the novel compounds of the invention for psoriasis is done using the Keratinocyte Proliferation Assay in combination with other assays that measure inhibition of IL-2 production and stimulation of IL-10 production in peripheral blood mononuclear cells (PBMCs).
6. The IL-10 Induction Assay
This is an in vitro efficacy assay for psoriasis, abscess and adhesion. Psoriasis involves both keratinocytes and immune cells. IL-10 is a unique cytokine because it is anti-inflammatory and immunosuppressive. This assay tells us whether a VDRM is able to function as an agonist in PBMCs (primary blood mononuclear cells) or not. A lower EC50 value is desirable in this assay since a compound with a lower EC50 value will be a better agonist in PBMCs.
(6) Materials and Method for human IL-10 Induction Assay:
Isolation of peripheral blood mononuclear cells (PBMCs):
• A. Collect 50 ml of human blood and dilute with media, RPMI-1640. • B. Prepare sterile tubes with ficol. • C. Add diluted blood to tubes. • D. Centrifuge. • E. Discard the top layer and collect the cells from middle layer. • F. Divide all cells into four tubes and add media. • G. Centrifuge. • H. Aspirate off media and resuspend. • I. Collect all cells • J. Centrifuge. at 1200 rpm for 10 minutes. • K. Resuspend in RPMI-1640 with 2% FBS and count cells Stimulation of PBMC: • L. Prepare TPA in DMSO. • M. Dissolve PHA in water. • N. Plate TPA/PHA treated PBMCs in well plates. • O. Incubate. Treatment: • P. Prepare all compound dilutions in plain RPMI-1640 media. • Q. Add diluted compound. • R. Incubate. Sample Collection and assay: • S. Remove all the cells by centrifugation and assay the supernatant for IL-10 by immunoassay. • 1) T. Perform IL-10 assay using anti-human IL-10 antibody coated beads, as described by the manufacturer (Linco Research Inc., St. Charles, Mo.).

[2] = Homo sapiens, Keratinocyte, 72 h

SMILES: CCC(CC)(c1ccc(OC(C)C(O)C(C)(C)C)c(C)c1)c1ccc(C(=O)O)c(C)c1 (single isomer, unassigned) [Ex. 11, 3′-[4-(2-hydroxy-1,3,3-trimethylbutoxy)-3-methylphenyl]-3′-[4-carboxyl-3-methylphenyl]pentane]
- EC50 (rat osteocalcin promoter): 7 nM
- Mouse Hypercal (female DBF mice): 3000 µg/kg/day
- IC50 [1, 2]: 308 nM
- IC50 (IL-10; Homo sapiens, PBMC): 478 nM

SMILES: CCC(CC)(c1ccc(OCC(O)C(C)(C)C)c(C)c1)c1ccc(C(=O)Nc2nnn[nH]2)c(C)c1 (single isomer, unassigned) [Ex. 12a, 3′-[4-(2-hydroxy-3,3-dimethylbutoxy)-3-methylphenyl]-3′-[4-(tetrazol-5-ylaminocarbonyl)-3-methylphenyl]pentane]
- EC50 (rat osteocalcin promoter): 1 nM
- Mouse Hypercal (female DBF mice): 300 µg/kg/day
- IC50 [1, 2]: 4 nM
- IC50 (IL-10; Homo sapiens, PBMC): 52 nM

SMILES: CCC(CC)(c1ccc(OCC(O)C(C)(C)C)c(C)c1)c1ccc(C(=O)N(C)CC(=O)O)c(C)c1 (single isomer, unassigned) [Ex. 19, [(4-{1-Ethyl-1-[4-(2-hydroxy-3,3-dimethyl-butoxy)-3-methyl-phenyl]-propyl}-2-methyl-benzoyl)-methyl-amino]-acetic acid]
- EC50 (rat osteocalcin promoter): 12 nM and 16 nM
- Mouse Hypercal (female DBF mice): 2000 µg/kg/day
- IC50 ([1]; 72 hr): 82 nM
- IC50 (IL-10): 142 nM

SMILES: CCC(CC)(c1ccc(OCC(O)C(C)(C)C)c(C)c1)c1ccc(C(=O)NCC(=O)O)c(C)c1 (single isomer, unassigned) [Ex. 25A, (4-{1-ethyl-1-[4-(2-hydroxy-3,3-dimethylbutoxy)-3-methylphenyl]-propyl}-2-methylbenzoylamino)acetic acid]
- EC50 (rat osteocalcin promoter): 0.4 nM
- Mouse Hypercal (female DBF mice): <300 µg/kg/day
- IC50 ([1]; 72 hr): 1100 nM
- IC50 (IL-10): 40 nM

SMILES: CCC(CC)(c1ccc(OCC(O)C(C)(C)C)c(C)c1)c1ccc(C(=O)NCC(=O)O)c(C)c1 (single isomer, unassigned) [Ex. 25B, (4-{1-ethyl-1-[4-(2-hydroxy-3,3-dimethylbutoxy)-3-methylphenyl]-propyl}-2-methylbenzoylamino)acetic acid]
- EC50 (rat osteocalcin promoter): 2 nM and 3 nM
- Mouse Hypercal (female DBF mice): 1000 µg/kg/day
- IC50 ([1]; 72 hr): 26 nM
- IC50 (IL-10): 158 nM

SMILES: CCC(CC)(c1ccc(OCC(O)C(C)(C)C)c(C)c1)c1ccc(C(=O)Nc2nnn[nH]2)c(C)c1 (single isomer, unassigned) [Ex. 26, 3′-[4-(2-hydroxy-3,3-dimethylbutoxy)-3-methylphenyl]-3′-[4-(tetrazol-5-ylaminocarbonyl)-3-methylphenyl]pentane]
- EC50 (rat osteocalcin promoter): 1 nM
- Mouse Hypercal (female DBF mice): 300 µg/kg/day
- IC50 ([1]; 72 hr): 4 nM
- IC50 (IL-10): 52 nM

SMILES: CCC(CC)(c1ccc(OC(C)C(O)C(C)(C)C)c(C)c1)c1ccc(C(=O)NCC(=O)O)c(C)c1 (single isomer, unassigned) [Ex. 31, 3′-[4-(2-hydroxy-1,3,3-trimethylbutoxy)-3-methylphenyl]-3′-[4-(carboxymethylaminocarbonyl)-3-methylphenyl]pentane]
- EC50 (rat osteocalcin promoter): 1 nM
- Mouse Hypercal (female DBF mice): 3000 µg/kg/day
- IC50 ([1]; 72 hr): 21 nM
- IC50 (IL-10): 295 nM

SMILES: CCC(CC)(c1ccc(COCC(=O)O)c(C)c1)c1ccc(OCC(O)C(C)(C)C)c(C)c1 (single isomer, unassigned) [Ex. 33, (4-{1-ethyl-1-[4-(2-hydroxy-3,3-dimethyl-butoxy)-3-methyl-phenyl]-propyl}-2-methyl-benzyloxy)-acetic acid]
- Mouse Hypercal (female DBF mice): <300 µg/kg/day
- IC50 [1, 2]: 6 nM
- IC50 (IL-10; Homo sapiens, PBMC): 19 nM

SMILES: CCC(CC)(c1ccc(C(=O)O)cc1)c1ccc(OCC(O)C(C)(C)C)c(Cl)c1 (single isomer, unassigned) [Ex. 37, 3′-[3-chloro-4-(2-hydroxy-3,3-dimethylbutoxy)phenyl]-3′-[4-carboxyphenyl]pentane]
- EC50 (rat osteocalcin promoter): 12 nM
- Mouse Hypercal (female DBF mice): 1000 µg/kg/day
- IC50 ([1]; 72 hr): 55 nM
- IC50 (IL-10; Homo sapiens, PBMC): 229 nM

- EC50 (rat osteocalcin promoter): 0.1 nM
- Mouse Hypercal (female DBF mice): <300 µg/kg/day
- IC50 (IL-10): 6 nM
SMILES: CCC(CC)(c1ccc(-c2nnn[nH]2)cc1)c1ccc(OCC(O)C(C)(C)C)c(C)c1 (single isomer, unassigned) [Ex. 44, 1-(4-{1-Ethyl-1-[4-(1H-tetrazol-5-yl)-phenyl]-propyl}-2-methyl-phenoxy)-3,3-dimethyl-butan-2-ol]
- IC50 [1, 2]: 28 nM

- EC50 (rat osteocalcin promoter): 0.7 nM
- Mouse Hypercal (female DBF mice): 300 µg/kg/day
- IC50 (IL-10): 15 nM
SMILES: CCC(CC)(c1ccc(-c2nnn[nH]2)cc1)c1ccc(OCC(O)C(C)(C)C)c(C)c1 (single isomer, unassigned) [Ex. 45, 1-(4-{1-Ethyl-1-[4-(1H-tetrazol-5-yl)-phenyl]-propyl}-2-methyl-phenoxy)-3,3-dimethyl-butan-2-ol]
- IC50 ([1]; 72 hr): 32 nM

SMILES: CCC(CC)(c1ccc(CC2SC(=O)NC2=O)c(C)c1)c1ccc(OCC(O)C(C)(C)C)c(C)c1 (single isomer, unassigned) [Ex. 50, 5-(4-{1-ethyl-1-[4-(2-hydroxy-3,3-dimethyl-butoxy)-3-methyl-phenyl]-propyl}-2-methyl-benzyl)-thiazolidine-2,4-dione]
- EC50 (rat osteocalcin promoter): 0.2 nM
- Mouse Hypercal (female DBF mice): 300 µg/kg/day
- IC50 ([1]; 72 hr): 3 nM
- IC50 (IL-10): 4 nM

SMILES: CCC(CC)(c1ccc(CC2SC(=O)NC2=O)c(C)c1)c1ccc(OCC(O)C(C)(C)C)c(C)c1 (single isomer, unassigned) [Ex. 51, 5-(4-{1-ethyl-1-[4-(2-hydroxy-3,3-dimethyl-butoxy)-3-methyl-phenyl]-propyl}-2-methyl-benzyl)-thiazolidine-2,4-dione]
- EC50 (rat osteocalcin promoter): 1.4 nM
- Mouse Hypercal (female DBF mice): 300 µg/kg/day
- IC50 ([1]; 72 hr): 26 nM
- IC50 (IL-10): 19 nM

SMILES: CCC(CC)(c1ccc(OC(C)C(O)C(C)(C)C)c(C)c1)c1ccc(C(=O)N(C)CC(=O)O)c(C)c1 (single isomer, unassigned) [Ex. 52, [(4-{1-Ethyl-1-[4-(2-hydroxy-1,3,3-trimethyl-butoxy)-3-methyl-phenyl]-propyl}-2-methyl-benzoyl)-methyl-amino]-acetic acid]
- EC50 (rat osteocalcin promoter): 4 nM
- Mouse Hypercal (female DBF mice): >3000 µg/kg/day
- IC50 ([1]; 72 hr): 52 nM
- IC50 (IL-10; Homo sapiens, PBMC): 154 nM

SMILES: CCC(CC)(c1ccc(CCC(=O)O)c(C)c1)c1ccc(OCC(=O)C(C)(C)C)c(C)c1 [Ex 6, 3′-[4-(2-oxo-3,3-dimethylbutoxy)-3-methylphenyl]-3′-[4-(2-carboxylethyl)-3-methylphenyl]pentane]
- EC50 (rat osteocalcin promoter; Rattus norvegicus, 48 h): 0.3 nM
- Mouse Hypercal (female DBF mice): 10 µg/kg/day
- IC50 [1, 2]: 2 nM
- IC50 (IL-10; Homo sapiens, PBMC): 55 nM

SMILES: CCC(CC)(c1ccc(C(=O)O)cc1)c1ccc(OCC(=O)C(C)(C)C)c(C)c1 [Ex. 21, 4-{1-[4-(3,3-Dimethyl-2-oxo-butoxy)-3-methyl-phenyl]-1-ethyl-propyl}-benzoic acid]
- Mouse Hypercal (female DBF mice): 6000 µg/kg/day
- IC50 [1, 2]: 223 nM
- IC50 (IL-10; Homo sapiens, PBMC): 1050 nM

SMILES: CCC(CC)(c1ccc(OCC(O)C(C)(C)C)c(C)c1)c1ccc(C(=O)N[C@H](C)C(=O)O)c(C)c1 (stereo partly drawn) [Ex. 34, D-2-(4-{1-ethyl-1-[4-(2-hydroxy-3,3-dimethyl-butoxy)-3-methyl-phenyl]-propyl}-2-methyl-benzoylamino)-propionic acid]
- Mouse Hypercal (female DBF mice): <300 µg/kg/day
- IC50 [1, 2]: 25 nM
- IC50 (IL-10; Homo sapiens, PBMC): 45 nM
